Molecules are shown by their SMILES. ± gives the expanded uncertainty stated by the source.

The conditions of this data set: Crystal; DTA.
Regarding `CC(=O)O` [acetic acid], the Normal melting temperature was found to be 16.80 ± 6 °C.

`CCCC(=O)O` [butanoic acid]: the Normal melting temperature is -4.50 ± 4 °C.

For `O=CO` [formic acid], the Normal melting temperature is 9.70 ± 8 °C.

`CCC(=O)O` [propanoic acid]: the Normal melting temperature is -21.20 ± 2 °C.

Take `O` [water]: the Normal melting temperature stood at 0.00 ± 2 °C.

The values are drawn from the NIST ThermoML archive (doi:10.1016/j.tca.2018.03.002).
